These are literature values, as cited in patent publication US20230364254A1, “METHODS FOR TREATING CANCERS WITH ANTIBODY DRUG CONJUGATES (ADC) THAT BIND TO 191P4D12 PROTEINS” (priority 2020, published 2023).

Where two headings read alike, the source gives them in different places.

For data set [1], the system named is acute myeloid leukemia (AML). The following applies: administered alone; cited from earlier work.
For data set [2], the system named is metastatic urothelial cancer. The following applies: cited from earlier work.
[3] abbreviates: first line, patients ineligible for cisplatin, open-label single arm study.
Setting [4] is: second-line, post-platinum, phase 3 study in 542 patients.

“CT-011: anti-PD-1 antibody, a humanized antibody”: in data set [1], the “response in acute myeloid leukemia (AML) at relapse” value is listed as “failed to show response”.

For the compound `CC[C@]12C=CCN3CC[C@@]4(c5cc([C@@]6(C(=O)OC)C[C@@H]7C[C@@H](C(C)(F)F)CN(Cc8c6[nH]c6ccccc86)C7)c(OC)cc5N(C)[C@H]4[C@@](O)(C(=O)OC)[C@@H]1OC(C)=O)[C@@H]32` [vinflunine], the overall response rate in data set [2] (second-line treatment of metastatic disease) was 9%. Also, the hazard ratio in data set [2] (second-line, vinflunine+BSC vs BSC alone) is listed as 0.88. Besides, in data set [2] (second-line, vinflunine+best supportive care (BSC) vs BSC alone), the survival benefit is 2 months. Also, the survival in data set [2] (second-line, vinflunine+best supportive care (BSC)) is 6.9 months.

As for “atezolizumab: anti-programmed death-ligand 1 (PD-L1) immune checkpoint inhibitor”, in data set [2] (setting [3]), the “median OS” value is 15.9 months and the “objective response rate (ORR)” value is given as 23%. For the same compound, the “confirmatory phase 3 trial outcome” value in data set [2] (second-line) is on record as “failed to meet its primary endpoint of OS”.

As for “pembrolizumab: humanized monoclonal IgG4 anti-PD-1 antibody”, the ORR in data set [2] (first line, patients ineligible for cisplatin, open label single arm study in 370 patients) was 29%. In data set [2] (second-line, post-platinum, phase 3, vs taxane chemotherapy or vinflunine), the “difference in progression-free survival (PFS) between the two arms” value is “No statistically significant difference”. Moreover, in data set [2] (setting [4]), the ORR was 21% and the OS is recorded as 10.3 months.

`CC(=O)O[C@@]12CO[C@@H]1C[C@H](O)[C@@]1(C)C(=O)[C@H](O)C3=C(C)[C@@H](OC(=O)[C@H](O)[C@@H](NC(=O)OC(C)(C)C)c4ccccc4)C[C@@](O)([C@@H](OC(=O)c4ccccc4)[C@H]21)C3(C)C` [docetaxel]: in data set [2] (after platinum and CPI therapy), the “ORR (n=2/19)” value is 10.5%.
